This note sets out measurements from US5137918A, “N-(2'-aminophenyl)-benzamide derivatives process for the preparation thereof and pharmaceutical compositions containing them” (priority 1986, dated 1992).

The test system of series [1] is mammary adenocarcinoma 16C tumor cells. Description: Mamma Adenocarcinoma 16C Cytotoxicity Assay. In kind it is cell-based. Particulars: ID50 ≤250 μg/mL assessed as cytostatically active. The method, then: (§1) 4-Acetamino-N-(2'-aminophenyl) benzamide was used as an example of a compound according to the present invention and compared with […] as standard, the outstanding inhibition action of which against various experimental tumors in vitro and in vivo is known. The testing was carried out in vivo with SD-rats against MNU-induced mammary adenocarcinoma and acetoxymethylmethylnitrosamine-induced (AMMN-induced) colon adenocarcinoma. The testing was carried out in vitro in the "colorimetric-cytotoxicity assay" using L1210 and mammary adenocarcinoma 16C tumor cells. In this test system, substances with ID50 values of ≤250 μg/mL are assessed as being cytostatically active.

The test system of a further series is L1210 tumor cells. Description: L1210 Colorimetric Cytotoxicity Assay. In kind it is cell-based. The following applies: for IC50: Mus musculus, L1210, ID50 ≤250 μg/mL assessed as cytostatically active. The procedure:
as §1

A short description of series [2]: Acute intragastral toxicity (LD50), 7-day observation. In kind it is in vivo. Particulars: male mice.
Series [3] can be described thus: Pharmacokinetic experiments on rats (plasma level, AUC, half-life, bioavailability). It counts as in vivo. The procedure: FIG. 1 is the AUC, rat, after administration of 4-acetamino-N-(2'-aminophenyl)benzamide. The * is intragastral administration (2 mg/kg; 10 mg/kg; 50 mg/kg). The * is intravenous administration (10 mg/kg).
In FIG. 2 the average plasma level of 4-amino-N-(2'-aminophenyl)-benzamide in rats after single administration of 10 mg/kg intragastrally (n=4).
The bioavailability of the active material according to the present invention is 100%. […] This is shown graphically in FIG. 1 of the accompanying drawings.

In series [4] the test system is methylnitrosurea-induced (MNU-induced) mammary adenocarcinoma. Description: MNU-induced mammary adenocarcinoma in SD rats. It counts as in vivo, female SD rats. The procedure: FIGS. 5 and 6 show the antineoplastic effect of compounds A, B, C at equimolar doses (33 μmol/kg/day); is control; Δ is compound C (8.0 mg/kg), .smallcircle. is compound B (7.5 mg/kg), and .quadrature. is compound A (8.9 mg/kg).
as §1
The in vivo activity of 4-acetamino-N-(2'-aminophenyl)-benzamide was tested against primary mammary adenocarcinoma induced by 3 single IV administrations of methylnitrosurea on Days 50, 71, and 92 following birth in female SD rats. As soon as tumor volumes ≥0.8 cm^3 were reached, test animals were randomized and therapy was started. […] Median tumor volumes and numbers were determined weekly and compared with untreated controls.

Series [5] concerns acetoxymethylmethylnitrosamine-induced (AMMN-induced) colon adenocarcinoma. Description: AMMN-induced colon adenocarcinoma in SD rats. It counts as in vivo, Male SD-rats. Particulars: for antineoplastic effect (in words): 10-week treatment, 5 days per week. The procedure:
as §1
The activity of the compounds A, B, and C was tested in vivo against AMMN-induced colon adenocarcinoma. Male SD-rats were given 2 mg/kg/week acetoxymethylmethylnitrosamine (AMMN) intrarectally for a period of 10 weeks for tumor induction. Animals with manifest tumors were assigned randomly to the test groups.
^a Application via gastric tube, 5 days per week
The animals were examined twice daily. After the 10-week treatment period, the animals were sacrificed and a total necropsy performed. All tumors were individually measured and their volumes added to a total tumor volume.

Values after ≈ are worked out from the molar mass of the structure shown. “Also recorded” adds a separate entry of the source.

On to `Nc1ccccc1NC(=O)c1ccc(NC(=O)CCO)cc1` [4-(β-hydroxypropionylamino)-N-(2'-aminophenyl)-benzamide], for which the IC50 (usually the concentration needed to halve the response being measured) in series [1] was 0.77 µg/mL (≈ 2.57 µM).

For the compound `Nc1ccccc1NC(=O)c1ccc(NC=O)cc1` [4-Formylamino-N-(2'-aminophenyl)-benzamide], in series [1], the IC50 came to 0.4 µg/mL (≈ 1.57 µM).

Turning to `Nc1ccccc1NC(=O)c1ccc(NC(=O)CO)cc1` [4-Glycoloylamino-N-(2'-aminophenyl)-benzamide], the IC50 in series [1] came to 0.62 µg/mL (≈ 2.17 µM).

Consider `CC(C)C(=O)Nc1ccc(C(=O)Nc2ccccc2N)cc1` [4-isobutyrylamino-N-(2'-aminophenyl)-benzamide], for which, in series [1], the IC50 came out at 0.32 µg/mL (≈ 1.08 µM).

With `CC(=O)Nc1ccc(C(=O)Nc2ccccc2N)cc1` [Compound A, 4-Acetamino-N-(2'-aminophenyl)-benzamide], the results for the IC50 (in the series with L1210 tumor cells; in series [1]) were 3.75 µg/mL (≈ 13.9 µM) and 0.73 µg/mL (≈ 2.71 µM), respectively. In the series with L1210 tumor cells (Table 1: L1210 and mammary adenocarcinoma 16C, versus comparison standard), the “cytostatic activity (in words)” value is given as “acts outstandingly cytostatically; also recorded: about the same or better as that of the comparison standard”. For the same compound, the “acute toxicity versus comparison standard (in words)” value in series [2] (acute intragastral administration) was “considerably less toxic”. For the same compound, the LD50 (as a rule, the dose expected to kill half of the subjects tested) at 168 h in series [2] (mouse, in vivo, po, acute intragastral, n=4, 7-day observation) turned out to be 1600 mg/kg. Moreover, the half-life (commonly the time needed for the level to fall by half in the phase considered) in series [3] (rat, in vivo) was 4.2 to 4.5 h. Also, in series [3] (rat, in vivo), the “half-life time versus standard (in words)” value is on record as “longer half-life time”. For the same compound, the bioavailability (in general, the share of a dose that reaches the circulation, judged against a reference dose that is usually intravenous) in series [3] (rat, in vivo, po, 10 mg/kg) stood at 100%. In series [3] (rats), the “intestinal resorption (in words)” value was “quickly, completely, and dosage-linearly”. For the same compound, the “antineoplastic effect at equimolar doses (in words)” value in series [4] (33 μmol/kg/day, A 8.9, B 7.5, C 8.0 mg/kg) is “shows the highest antineoplastic effect”. Further, the “tumor growth, dose dependence and inhibition (in words)” value in series [4] (FIG. 4, 7.5, 10, 12.5 mg/kg intragastrally, 5 times/week for 5 weeks) was “affects tumor growth in a dose-dependent manner with almost complete tumor growth inhibition in the highest dose group”. For the same compound, the “tumor growth (in words)” value in series [5] (7.0 mg/kg/day) was “completely inhibited further growth of colon carcinoma”. For the same compound, the T/C (in general, the result in the treated group divided by that in the control group, in per cent) was 11.1% in series [5] (7.0 mg/kg/day, gastric tube, 10 weeks) and “about 5%” in series [5] (11.9 mg/kg, gastric tube, 10 weeks). In addition, in series [5] (11.9 mg/kg), the “tumor growth inhibition (in words)” value was “the growth inhibition is much less”. For the same compound, the “antineoplastic effect (in words)” value in series [5] (gastric tube) is “very efficient”.

`Nc1ccc(C(=O)Nc2ccccc2N)cc1` [Compound B, 4-Amino-N-(2'-aminophenyl)-benzamide, reference compound]: the IC50 in the series on L1210 tumor cells was found to be 2.78 µg/mL (≈ 12.2 µM); in series [1], 0.69 µg/mL (≈ 3.04 µM). Also, the half-life in series [3] (rat, in vivo, po, 10 mg/kg) is roughly 0.25 h. In addition, the “tumor growth (in words)” value in series [5] (5.9 mg/kg/day) is on record as “arrest of tumor growth”. The “relative median tumor volume T/C” value in series [5] (5.9 mg/kg/day=26 μmol/kg/day, gastric tube, 10 weeks) is 10.6%. Besides, the “antineoplastic effect (in words)” value in series [5] (gastric tube) was “very efficient”.

Regarding `CNc1ccc(C(=O)Nc2ccccc2N)cc1` [Compound C, 4-Methylamino-N-(2'-aminophenyl)-benzamide, reference compound], the IC50 with L1210 tumor cells was 4.04 µg/mL (≈ 16.7 µM).
